# Measured values from US20230270703A1, “COMPOUNDS AND METHODS FOR THE TREATMENT OF EYE DISORDERS” (OccuRx Pty Ltd, priority 2020, published 2023).
# Read-outs that look alike come from different tables or passages of the source.
# Experiments:
# [1] = Animal pharmacokinetic data, 91 days of dosing in rats; assay type: in vivo
# [2] = Rabbit plasma and ocular tissue steady state pharmacokinetics, 8 daily oral doses; assay type: in vivo, Dutch Belted pigmented rabbits; conditions: for Tmax / Cmax: male, Dutch Belted
# Experimental: Male Dutch Belted pigmented rabbits were administered a once daily dose of 50 or 100 mg/kg of (E)-2-[[3-Methoxy-4-(difluoromethoxy)phenyl-1-oxo-2-propenyl]amino]benzoic acid by oral gavage for 8 days. The oral formulation was prepared in 1% carboxymethyl cellulose. Blood was collected into tubes containing K2EDTA from two animals/dose/time point at 0 (predose), 1, 2, 4, 8, and 24 hours after the last dose on Study Day 8. Immediately following blood collection, animals were sacrificed via overdose of sodium pentobarbital. Blood samples were placed in a chilled cryorack until centrifuged to obtain plasma, which was stored at approximately -70° C. At the time of sacrifice for all animals, both eyes were enucleated, the aqueous humor was collected and discarded, and each eye was then flash frozen in liquid nitrogen for 15 to 20 seconds. The enucleated eye was placed on dry ice or stored at approximately -70° C. for at least two hours. Within approximately 5 days, the choroid-RPE, iris-ciliary body, retina and vitreous humor were collected from the right and left eye. The ocular tissues were rinsed with saline and blotted dry, as appropriate, weighed, and placed on dry ice. Sample analysis was performed using a qualified LC-MS/MS method to ascertain the concentration of (E)-2-[[3-Methoxy-4-(difluoromethoxy)phenyl-1-oxo-2-propenyl]amino]benzoic acid in each tissue matrix. Non-compartmental analysis (Gibaldi and Perrier, 1982) was applied to the individual and mean concentration data. Nominal doses and sampling times were used. Concentration values below the lower limit of quantitation were treated as zero for pharmacokinetic analysis. The plasma and ocular steady state non-compartmental pharmacokinetic parameters for repeated oral administration of 50 or 100 mg/kg on Day 8 are summarized in Table 2 and further below.
# [3] = Human Phase I clinical trial plasma pharmacokinetics, single 50 mg dose; assay type: in vivo, humans; conditions: 50 mg single oral dose
# Experimental: Six healthy male volunteers in a Phase I clinical trial received a single dose of 50 mg (E)-2-[[3-Methoxy-4-(difluoromethoxy)phenyl-1-oxo-2-propenyl]amino] benzoic acid administered as powder-in-capsule. Blood was collected 10 minutes prior to dosing, and at 15 and 30 minutes and 1, 2, 3, 4, 6, 8, 12, 24, 36, 48, 72 and 96 hours post dose into K2EDTA tubes. Samples were spun in a refrigerated centrifuge within 1 hour of collection, at 2000 g for 10 minutes. Plasma was collected and frozen on dry ice.
# (§1) The concentration of (E)-2-[[3-Methoxy-4-(difluoromethoxy)phenyl-1-oxo-2-propenyl]amino]benzoic acid in plasma was determined using a validated LC-MS/MS method. A non-compartmental analysis was performed using WinNonLin software. Nominal doses and sampling times were used. Concentration values below the lower limit of quantitation were treated as zero for pharmacokinetic analysis.
# [4] = Rat plasma pharmacokinetic study, single daily dose for 28 days, plasma on first day of dosing; assay type: in vivo, Sprague-Dawley rats; conditions: Sprague-Dawley, read-out: elimination half-life (converted)
# Experimental: Sprague-Dawley rats were administered a single daily dose of (E)-2-[[3-methoxy-4-(difluoromethoxy)phenyl-1-oxo-2-propenyl]amino]benzoic at 25, 50 or 100 mg/kg for 28 consecutive days. Plasma was collected up to 24 hours post-dose on the first day of dosing.
# [5] = Human Phase I clinical study, steady state exposure at 50 mg after 14 days dosing; assay type: in vivo, humans; conditions: plasma, oral, Data from Phase I (after 14 days dosing)
# Experimental: The corresponding data from the human Phase I clinical study is also included below, showing a much greater than predicted Cmax and AUC0-24 at 50 mg dosing.
# [6] = Dog plasma pharmacokinetic study, single daily dose for 28 days, plasma on first day of dosing; assay type: in vivo, Beagle dogs; conditions: beagle, read-out: elimination half-life (converted)
# Experimental: Beagle dogs were administered a single daily dose of (E)-2-[[3-Methoxy-4-(difluoromethoxy)phenyl-1-oxo-2-propenyl]amino]benzoic at 25, 50 or 100 mg/kg for 28 consecutive days. Plasma was collected up to 24 hours post-dose on the first day of dosing.
# [7] = Rat plasma and retina pharmacokinetics, single oral dose 50 mg/kg; assay type: in vivo, Sprague Dawley rats; conditions: single oral dose 50 mg/kg
# Experimental: Male Sprague Dawley rats were administered a single dose of 50 mg/kg of (E)-2-[[3-Methoxy-4-(difluoromethoxy)phenyl-1-oxo-2-propenyl]amino]benzoic acid by oral gavage. The oral formulation was prepared in 1% carboxymethyl cellulose. Samples were collected from 3 animals/timepoint at 1, 2, 4, 8 and 24 hours after dosing. Whole blood was collected from the tail vein in conscious rats into polypropylene tubes containing heparin. Blood samples were centrifuged immediately (3000 rpm, for 10 minutes) and supernatant plasma removed and snap frozen in liquid N2. After blood collection, animals were euthanised with pentobarbitone (120 mg/kg), eyes were enucleated and retina were weighed, collected and snap frozen in liquid nitrogen. Blood was centrifuged at 3000 rpm for 10 mins at 4° C. and plasma was collected and snap frozen in liquid N2. Plasma and retinal concentrations of (E)-2-[[3-Methoxy-4-(difluoromethoxy)phenyl-1-oxo-2-propenyl]amino]benzoic acid were determined using a validated LC-MS/MS method. Cmax and Tmax was estimated using GraphPad prism software.
# [8] = Human clinical plasma pharmacokinetics, single or multiple doses of 200 mg; assay type: in vivo, humans; conditions: for Dose normalised AUC0-inf / Dose normalised Cmax / AUC(0-inf) / Cmax / Tmax / half-life: 200 mg oral; for AUC(0-inf) / Cmax / Tmax / half-life: human, plasma, po; for half-life: read-out: T ½ (converted)
# Experimental: Clinical pharmacokinetic studies were also conducted on volunteers who received a single dose or multiple doses of 200 mg (E)-2-[[3-Methoxy-4-(difluoromethoxy)phenyl-1-oxo-2-propenyl]amino] benzoic acid administered as powder-in-capsule. Blood was collected 10 minutes prior to dosing, and at 15 and 30 minutes and 1, 2, 3, 4, 6, 8, 12, 24, 36, 48, 72 and 96 hours post dose into K2EDTA tubes. Samples were spun in a refrigerated centrifuge within 1 hour of collection, at 2000 g for 10 minutes. Plasma was collected and frozen on dry ice.
# as §1
# [9] = Animal pharmacokinetic data, 91 days of dosing in dogs; assay type: in vivo
# [10] = human plasma, cited from earlier work
# [11] = Tranilast plasma pharmacokinetics after 200 mg oral dosage (data from Charng et al.); assay type: in vivo, humans; conditions: human plasma
# Experimental: Pharmacokinetic data for a comparator compound Tranilast following 200 mg oral dosage are also shown. See, e.g., Charng M, Ding P Y, Chuang M, et al. Pharmacokinetic Properties of Tranilast in Chinese People. Journal of Food and Drug Analysis, Vol. 10, No. 3, 2002, Pages 135-138. Tranilast is approved for use in an amount of 3 × 100 mg/day.
# [12] = Tranilast 200 mg, Day 1, single dose
smiles,measurement,setting,value
COc1cc(/C=C/C(=O)Nc2ccccc2C(=O)O)ccc1OC(F)F [(E)-2-[[3-methoxy-4-(difluoromethoxy)phenyl-1-oxo-2-propenyl]amino]benzoic acid],accumulation with multiple dosing,[1],did not show accumulation
same,Tmax,"[2]; oral, rabbit ocular tissues, 50 and 100 mg/kg, read-out: Tmax for all analyzed ocular tissues",1 to 4 h
same,Cmax,"[2]; rabbit Choroid-RPE, 50 mg/kg/day oral, Day 8",3320 ng/g
same,Tmax,"[2]; rabbit Choroid-RPE, 50 mg/kg/day oral, Day 8, read-out: Tmax",1 h
same,Cmax,"[2]; rabbit Choroid-RPE, 100 mg/kg/day oral, Day 8",12300 ng/g
same,Tmax,"[2]; rabbit Choroid-RPE, 100 mg/kg/day oral, Day 8, read-out: Tmax",2 h
same,Cmax,"[2]; rabbit Iris Ciliary Body, 50 mg/kg/day oral, Day 8",2510 ng/g
same,Tmax,"[2]; rabbit Iris Ciliary Body, 50 mg/kg/day oral, Day 8, read-out: Tmax",1 h
same,Cmax,"[2]; rabbit Iris Ciliary Body, 100 mg/kg/day oral, Day 8",8620 ng/g
same,Tmax,"[2]; rabbit Iris Ciliary Body, 100 mg/kg/day oral, Day 8, read-out: Tmax",2 h
same,Cmax,"[2]; rabbit Plasma, 50 mg/kg/day oral, Day 8",15200 ng/mL
same,Tmax,"[2]; rabbit Plasma, 50 mg/kg/day oral, Day 8, read-out: Tmax",1 h
same,Cmax,"[2]; rabbit Plasma, 100 mg/kg/day oral, Day 8",42000 ng/mL
same,Tmax,"[2]; rabbit Plasma, 100 mg/kg/day oral, Day 8, read-out: Tmax",2 h
same,Cmax,"[2]; rabbit Retina, 50 mg/kg/day oral, Day 8",623 ng/g
same,Tmax,"[2]; rabbit Retina, 50 mg/kg/day oral, Day 8, read-out: Tmax",1 h
same,Cmax,"[2]; rabbit Retina, 100 mg/kg/day oral, Day 8",2370 ng/g
same,Tmax,"[2]; rabbit Retina, 100 mg/kg/day oral, Day 8, read-out: Tmax",4 h
same,Cmax,"[2]; rabbit Vitreous Humour, 50 mg/kg/day oral, Day 8",3.3 ng/mL
same,Tmax,"[2]; rabbit Vitreous Humour, 50 mg/kg/day oral, Day 8, read-out: Tmax",1 h
same,Cmax,"[2]; rabbit Vitreous Humour, 100 mg/kg/day oral, Day 8",11.5 ng/mL
same,Tmax,"[2]; rabbit Vitreous Humour, 100 mg/kg/day oral, Day 8, read-out: Tmax",4 h
same,detection in plasma or ocular tissue by 24 hours-post dose,"[2]; rabbits, either dose (50 or 100 mg/kg)",could not be detected
same,Dose normalised AUC0-inf,[3],"2,256 ng·h/mL"
same,Dose normalised Cmax,[3],175 ng/mL
same,AUC(0-inf),[3]; male,113 µg·h/mL
same,Tmax,[3]; male,2.5 h
same,Cmax,"[3]; male, powder-in-capsule",8740 ng/mL
same,half-life,"[3]; male, read-out: T ½ (converted)",24 h
same,half-life,[4]; 25 mg/kg,12.9 h
same,half-life,[4]; 50 mg/kg,13 h
same,half-life,[4]; 100 mg/kg,11 h
same,Cmax,[5],6560 ng/mL
same,AUC(0-t),"[5]; read-out: AUC0-24 hrs, ss",74 µg·h/mL
same,half-life,[6]; 25 mg/kg,4.3 h
same,half-life,[6]; 50 mg/kg,4.9 h
same,half-life,[6]; 100 mg/kg,4.2 h
same,Cmax,"[7]; male, Sprague Dawley, rat retina, read-out: estimated Cmax in retina",792 ng/g
same,estimated maximum concentration in plasma,[7]; rat plasma,"35,134 ng/mL"
same,time of estimated maximum concentration in plasma,[7]; rat plasma,1 h
same,time of estimated maximal exposure in retina,[7]; rat retina,4 h
same,detection in the plasma and retina at 24-hours post-dose,[7]; rat,still detected
same,Dose normalised AUC0-inf,"[8]; Day 1, single dose",1951 ng·h/mL
same,Dose normalised Cmax,"[8]; Day 1, single dose",164 ng/mL
same,Dose normalised AUC0-inf,"[8]; Day 14, multiple dose","18,874 ng·h/mL"
same,Dose normalised Cmax,"[8]; Day 14, multiple dose",338 ng/mL
same,increase in Cmax after 14 days of dosing compared with a single dose,"[8]; 200 mg, steady state vs single dose",two-fold increase
same,AUC(0-inf),"[8]; 200 mg, Day 1, single dose",390 µg·h/mL
same,Cmax,"[8]; 200 mg, Day 1, single dose",32800 ng/mL
same,Tmax,"[8]; 200 mg, Day 1, single dose",3 h
same,half-life,"[8]; 200 mg, Day 1, single dose",9.6 h
same,AUC(0-inf),"[8]; 200 mg, Day 14, multiple dose",3770 µg·h/mL
same,Cmax,"[8]; 200 mg, Day 14, multiple dose",67600 ng/mL
same,Tmax,"[8]; 200 mg, Day 14, multiple dose",2.5 h
same,half-life,"[8]; 200 mg, Day 14, multiple dose",23.2 h
same,accumulation with multiple dosing,[9],did not show accumulation
COc1ccc(/C=C/C(=O)Nc2ccccc2C(=O)O)cc1OC [Tranilast],AUC(0-inf),[10]; Tranilast 200 mg oral,"412,000 ng·h/mL"
same,Cmax,[10]; Tranilast 200 mg oral,"42,000 ng/mL"
same,T ½,[10]; Tranilast 200 mg oral,7.5 h
same,Tmax,[10]; Tranilast 200 mg oral,2.8 h
same,AUC(0-inf),[10]; [12],"412,000 ng-h/mL"
same,Cmax,[10]; [12],"42,000 ng/mL"
same,T ½,[10]; [12],7.5 h
same,Tmax,[10]; [12],2.8 h
same,Dose normalised AUC0-inf,[11]; Tranilast 200 mg oral,"2,060 ng·h/mL"
same,Dose normalised Cmax,[11]; Tranilast 200 mg oral,210 ng/mL
same,Dose normalised AUC0-inf,[11]; [12],"2,060 ng·h/mL"
same,Dose normalised Cmax,[11]; [12],210 ng/mL
